# Patent publication US20240091242A1, “LIPIDS THAT REDUCE LUNG DAMAGE, IMPROVE PULMONARY FUNCTION AND DECREASE PRO-INFLAMMATORY CYTOKINES” (Signpath Pharma, Inc., priority 2021, published 2024)
# System: pro-inflammatory cytokines in the plasma
# Test: Multiplex analysis of cytokine levels in plasma, murine LPS ARDS model
# Type: in vivo, mouse
# Settings: for IL3 level in plasma / IL7 level in plasma / MCP-1 level in plasma / MIP-1alpha level in plasma / MIP-2 level in plasma: in pg/mL (unit assumed)
# Source text: C57B16/N mice were obtained from Charles River Laboratories (Montreal, Quebec). Male mice, 20-25 g of body weight, were used throughout the studies. Animals were housed in specific pathogen[…]free conditions, and all experiments were approved by Institutional Animal Care and Use Committee (IPST_SL20200402-1). Animal studies are reported in compliance with […] guidelines.
# All delivered mice were kept for one week as an acclimatization period prior to performing any experiments. Animals were housed in a maximum of two mice per cage under a 12[…]h light/12[…]h dark cycle at a temperature of ˜20-22° C. and 40-60% humidity. Food and water were available ad libitum. Each cage of mice was blindly assigned for different treatments or maintained as a control group according to the experimental design. The individual who carried out the experiments was not blinded as to treatment, but data analysis and experiments were otherwise blinded to avoid any bias.
# In the ARDS group, mice received Escherichia coli O111:B4 lipopolysaccharide (50 μg in 0.05 mL saline, i.t.), while, in the control group, the animals received an instillation of saline (0.05 mL, i.t.). For intratracheal instillation, mice were slightly anesthetized with isoflurane.
# The lipid SPPCT-800 was dissolved in water (low dose—2 mg/ml; high dose—20 mg/ml). For the 24-hour study, two treatment approaches were used. Mice received a single dose of SPPCT-800 (200 mg/kg, per gavage) as prevention (30 minutes before the LPS instillation), or as a single dose of either 20 mg/kg or 200 mg/kg as therapy (3-hour after the LPS instillation). For the 72-hour study, mice received a total of 8 treatments of SPPCT-800 (200 mg/kg) starting at 3-hour after the LPS instillation. Disease progression in mice was assessed by the evaluation of pulmonary functions, blood oxygen saturation, and body weight change. On the terminal day of each study (24 hours or 72 hours), measurement of cytokine levels in the plasma and BALF, and histopathology evaluations were done.
# Multiplex analysis of mediators. The inventors quantified 31 different mediators in the BALF and plasma by using a Discovery Assay® (Mouse Cytokine and Chemokine Array 31-Plex (MD31), Eve Technologies Corp, Calgary, AB, Canada). The multiplex assay was performed at Eve Technologies using the Bio-Plex™ 200 system (Bio-Rad Laboratories, Inc., Hercules, CA, USA) and a Milliplex Mouse Cytokine/Chemokine kit (Millipore, St. Charles, MO, USA) according to Eve Tech protocol. The 31-plex consisted of Eotaxin, G-CSF, GM-CSF, IFN-γ, IL-1α, IL-1β, IL-2, IL-3, IL-4, IL-5, IL-6, IL-7, IL-9, IL-10, IL-12 (p40), IL-12 (p70), IL-13, IL-15, IL-17, IP-10, KC, LIF, MCP-1, M-CSF, MIG, MIP-1α, MIP-1β, MIP-2,RANTES, TNFα, and VEGF. The assay sensitivities of these markers range from 0.1 pg/mL to 33.3 pg/mL. Individual analytes' values and other assay details are available on Eve Technologies' website and in the Milliplex protocol.
# Statistical Analysis. Results are expressed as means±SEM. Comparisons were made on normally distributed data using ANOVA, followed by a Fisher post hoc test to assess the difference between LPS+vehicle group with GraphPad Prism Software version 8.0 (San Diego, CA, USA). Differences were considered statistically significant when P values were less than 0.05. (* Shown difference versus Sham animals and # shown difference versus LPS+Vehicle group. * Means P<0.05, ** P<0.01, *** P<0.001 while # means P<0.05, ##P<0.01 and ###P<0.001).
# [1] = 24-hours, Pre: SPP4040 30 minutes before LPS
# [2] = 24-hours, Thera: SPP4040 3 hours after LPS
# [3] = 72-hours, Thera: eight SPP4040 injections over 72 hours after LPS
structure (smiles),measurement,setting,value
CCCCCCCCCCCCCC(=O)OCC(COP(=O)([O-])OCC(COC(=O)CCC)OC(=O)CCC)OC(=O)CCCCCCCCCCCCC.CCCCCCCCCCCCCC(=O)OCC(COP(=O)([O-])OCC(COC(=O)CCC)OC(=O)CCC)OC(=O)CCCCCCCCCCCCC.[Mg+2] (centres unmarked) [SPPCT-800],Eotaxin level in plasma,[1],719 ± 138
same,G-CSF level in plasma,[1],21035 ± 2241
same,GM-CSF level in plasma,[1],12 ± 2
same,IFN gamma level in plasma,[1],1 ± 1
same,IL1-alpha level in plasma,[1],3196 ± 3107
same,IL1-beta level in plasma,[1],3.8 ± 0.7
same,IL2 level in plasma,[1],11 ± 3
same,IL4 level in plasma,[1],0.2 ± 0.1
same,IL5 level in plasma,[1],8 ± 2
same,IL6 level in plasma,[1],176 ± 29
same,IL9 level in plasma,[1],2 ± 1
same,IL10 level in plasma,[1],57 ± 8
same,IL12 (p40) level in plasma,[1],12 ± 1
same,IL12 (p70) level in plasma,[1],17 ± 7
same,IL13 level in plasma,[1],22 ± 3
same,IL15 level in plasma,[1],63 ± 15
same,IL17 level in plasma,[1],2.6 ± 0.3
same,IP-10 level in plasma,[1],790 ± 206
same,KC level in plasma,[1],1271 ± 224
same,LIF level in plasma,[1],1.3 ± 0.2
same,LIX level in plasma,[1],470 ± 145
same,M-CSF level in plasma,[1],12 ± 1
same,MIG level in plasma,[1],2486 ± 203
same,MIP-1beta level in plasma,[1],109 ± 8
same,RANTES level in plasma,[1],200 ± 28
same,TNF-alpha level in plasma,[1],14 ± 1
same,VEGF level in plasma,[1],0.5 ± 0.1
same,IL3 level in plasma,[1],0.9 ± 0.1
same,IL7 level in plasma,[1],8 ± 2
same,MCP-1 level in plasma,[1],86 ± 20
same,MIP-1alpha level in plasma,[1],88 ± 4
same,MIP-2 level in plasma,[1],138 ± 7
same,Eotaxin level in plasma,[2],855 ± 228
same,G-CSF level in plasma,[2],22915 ± 410
same,GM-CSF level in plasma,[2],11 ± 1
same,IFN gamma level in plasma,[2],1 ± 1
same,IL1-alpha level in plasma,[2],159 ± 39
same,IL1-beta level in plasma,[2],3.6 ± 0.6
same,IL2 level in plasma,[2],16 ± 1
same,IL4 level in plasma,[2],0.4 ± 0.2
same,IL5 level in plasma,[2],11 ± 2
same,IL6 level in plasma,[2],155 ± 30
same,IL9 level in plasma,[2],6 ± 2
same,IL10 level in plasma,[2],90 ± 32
same,IL12 (p40) level in plasma,[2],12 ± 2
same,IL12 (p70) level in plasma,[2],40 ± 19
same,IL13 level in plasma,[2],22 ± 2
same,IL15 level in plasma,[2],49 ± 16
same,IL17 level in plasma,[2],2.3 ± 0.6
same,IP-10 level in plasma,[2],605 ± 102
same,KC level in plasma,[2],764 ± 274
same,LIF level in plasma,[2],1.5 ± 0.2
same,LIX level in plasma,[2],547 ± 203
same,M-CSF level in plasma,[2],16 ± 4
same,MIG level in plasma,[2],2593 ± 317
same,MIP-1beta level in plasma,[2],120 ± 29
same,RANTES level in plasma,[2],270 ± 70
same,TNF-alpha level in plasma,[2],14 ± 1
same,VEGF level in plasma,[2],0.6 ± 0.1
same,IL3 level in plasma,[2],0.5 ± 0.7
same,IL7 level in plasma,[2],4 ± 1
same,MCP-1 level in plasma,[2],157 ± 62
same,MIP-1alpha level in plasma,[2],92 ± 7
same,MIP-2 level in plasma,[2],128 ± 5
same,TNF-α levels in the plasma (in words),"72-hour study, P<0.05",markedly reduced
same,Eotaxin level in plasma,[3],464 ± 252
same,G-CSF level in plasma,[3],1116 ± 502
same,GM-CSF level in plasma,[3],6 ± 2
same,IFN gamma level in plasma,[3],6 ± 2
same,IL1-alpha level in plasma,[3],63 ± 27
same,IL1-beta level in plasma,[3],6.8 ± 3.8
same,IL2 level in plasma,[3],34 ± 10
same,IL4 level in plasma,[3],0.6 ± 0.4
same,IL5 level in plasma,[3],2 ± 1
same,IL6 level in plasma,[3],76 ± 31
same,IL9 level in plasma,[3],3 ± 1
same,IL10 level in plasma,[3],5 ± 1
same,IL12 (p40) level in plasma,[3],8 ± 1
same,IL12 (p70) level in plasma,[3],11 ± 5
same,IL13 level in plasma,[3],23 ± 3
same,IL15 level in plasma,[3],40 ± 22
same,IL17 level in plasma,[3],4 ± 3
same,IP-10 level in plasma,[3],150 ± 34
same,KC level in plasma,[3],502 ± 150
same,LIF level in plasma,[3],0.5 ± 0.1
same,LIX level in plasma,[3],574 ± 445
same,M-CSF level in plasma,[3],5 ± 2
same,MIG level in plasma,[3],447 ± 137
same,MIP-1beta level in plasma,[3],55 ± 13
same,RANTES level in plasma,[3],19 ± 2
same,TNF-alpha level in plasma,[3],7 ± 2
same,VEGF level in plasma,[3],7.4 ± 2.4
same,IL3 level in plasma,[3],0.1 ± 0.1
same,IL7 level in plasma,[3],3 ± 1
same,MCP-1 level in plasma,[3],34 ± 6
same,MIP-1alpha level in plasma,[3],133 ± 11
same,MIP-2 level in plasma,[3],56 ± 17
same,"IL-1β, IL-2, IL-3, IL-4, IL-5, IL-6, IL-7, IL-9, IL-10, IL-12 (p40), IL-12 (p70), IL-13, IL-15 and IL-17 in plasma (in words)",at 24 hours,markedly reduced
same,MCP-1 in the plasma (in words),at 24 hours and at 72 hours,inhibited
same,MIP-1α and MIP 1-β in the plasma (in words),at 24 hours and at 72 hours,Suppressive effects
same,GM-CSF in the plasma (in words),"at 24 hours, 200 mg/kg preventive, 20 mg/kg therapeutic and 200 mg/kg therapeutic, P<0.001",highly significant depressions
same,TNF-α in the plasma (in words),"at 24 hours, all three single dose groups, P<0.001",markedly reduced
same,IFN-γ levels in the plasma (in words),"at 24 hours, all three single-dose groups, P<0.01",profoundly depressed
same,levels of plasma IL-1α (in words),"at 24 hours, any of the mouse groups",did not reduce
same,IFN-γ levels in the plasma (in words),at 72 hours,Large reductions
same,GM-CSF in the plasma (in words),"at 72 hours, P<0.01",significant decreases
same,RANTES in the plasma (in words),at both 24 hours and 72 hours,suppressed
same,"MIG, IP10 and Eotaxin (in words)","marked suppression in the plasma or the BALF, but not in both",mixed
same,"G-CSF, VEGF, KC, LIF, LIX and M-CSF in the plasma (in words)","mouse, in vivo",suppressed
same,number of the 15 interleukins tested in which major reductions were consistently noted,plasma and BALF,14
